Laboratory results as given in patent US9308270B2, “Pharmaceutical composition on the basis of nanomicelles containing epigallocatechin gallate and a method of administration thereof to treat atopic dermatitis, Crohn's disease, adenomyosis, and hyperplastic diseases of the prostate gland” (NORDIC LABS LIMITED, priority 2011, dated 2016).

How the values were obtained:
[1] = cited from earlier work
[2] = Pharmacokinetic study of EGCG in rat plasma after peroral administration; format: in vivo; conditions: for AUC0-24 hr / Cmax: rat plasma
Protocol: Experiments were conducted on laboratory rats of Sprague-Dawley breed weighing between 250 g and 350 g. All studies on animals were conducted in accordance with “Guidelines for Care and Use of Experimental Animals,” […] At fixed time intervals (10 and 30 minutes, 1, 1.5, 2, 3, 8, and 24 hours), blood samples were drawn from the animals and, following centrifuging, plasma was drawn from the samples for analysis, refrigerated, and kept at −80° C. until it was needed for studies. For analytical studies to be conducted, the plasma samples were unfrozen, centrifuged, and divided into aliquots of 0.1 ml each. The samples were extracted three times in 2 ml of ethyl acetate for 5 minutes at constant shaking. Following extraction, the samples were centrifuged at 1,000 r.p.m. for 10 minutes. The supernatant was separated and placed in a glass tube.

[3] = test system: rats; assay: Toxicity observed in the rat pharmacokinetic study; format: in vivo; conditions: peroral, maximum dose 2,500 mg/kg (G-1), without formulation
Protocol: At fixed time intervals (10 and 30 minutes, 1, 1.5, 2, 3, 8, and 24 hours), blood samples were drawn from the animals and, following centrifuging, plasma was drawn from the samples for analysis, refrigerated, and kept at −80° C. until it was needed for studies.

[4] = Dependence of EGCG concentration in rat plasma on dose; format: in vivo; conditions: different doses, FIG. 2

Q: For epigallocatechin-3-gallate [EGCG], which “EGCG concentration in human plasma” value ([1]; maximum possible tea drinking during the day) is on record?
A: Its value is 326 ng/mL.

Q: What about the “maximum concentration of EGCG in plasma” value ([1]; patients taking preparations containing green tea catechins) of the same substance?
A: Its value is no more than 1 μm.

Q: What about the AUC0-24 hr ([2]; 500 mg/kg) of the same substance?
A: Its AUC0-24 hr is 49.23 ± 4.95 µg·h/mL.

Q: And the Cmax ([2]; 500 mg/kg)?
A: Its Cmax is 10650 ± 1140 ng/mL.

Q: What about the AUC0-24 hr ([2]; 2.5 g/kg (G-1)) of the same substance?
A: Its AUC0-24 hr is 179.2 ± 54.33 µg·h/mL.

Q: What about the Cmax ([2]; 2.5 g/kg (G-1)) of the same substance?
A: The Cmax was 58600 ± 22400 ng/mL.

Q: What about the “EGCG concentration level in plasma” value ([2]; rat, 100 mg/kg (G-5)) of the same substance?
A: Its value is “below LOQ”.

Q: And the toxicity [3]?
A: Its toxicity is “toxic to the animals”.

Q: And the “dependence of EGCG concentration in rat plasma on dose” value [4]?
A: The value was “nonlinear pattern and reached a plateau at the 500 mg/kg dose”.
